Results on two molecules are retold here after patent publication US20240368566A1, “PYK2-DERIVED PEPTIDES FOR INHIBITING INVADOPODIA-MEDIATED CANCER METASTASIS” (BAR-ILAN UNIVERSITY, priority 2023, published 2024).

Where no end group is shown, it is not given here.

Assay [1] has as its system MDA-MB-231 cells. The assay is described as follows: ECM degradation assay. To be noted: 24 h on fluorescent fibronectin/gelatin matrix; compared to control peptide. The assay is classed as cell-based, human. As to the method:
The in vitro matrix degradation assay was performed as described in Genna et al., 2018 (supra). Briefly, MatTek dishes were treated with 2.5% gelatin/2.5% sucrose, cross-linked with 0.5% glutaraldehyde, treated with 10 μg/ml of fluorescently labeled fibronectin (Alexa 568; Invitrogen, Thermo Fischer Scientific), and then with 1 mg/ml NaBH4 in PBS. 125,000 cells were plated on the fibronectin/gelatin matrix in Pyk2-PRR or control peptides and allowed to degrade for 24 h. Cells were then fixed in 3.7% paraformaldehyde, and random fields were imaged using an inverted fluorescent microscope (Leica AF6000; 40×, NA 1.3, oil objective). ECM degradation was analyzed by quantifying the average degraded area in pixels per field using ImageJ.

Assay [2] relates to MDA-MB-231 cells. The assay is described as follows: Invadopodium precursor formation assay. The assay is classed as cell-based, human. To be noted: 4 h, 0.1, 1 or 5 μM peptide. The procedure: The invadopodium precursor formation assay was performed as described in Genna et al., 2018 (supra). Briefly, gelatin was conjugated to Alexa 405 dye (Thermo Fisher Scientific). MatTek dishes were treated with 1 N HCl and coated with 50 μg/ml poly-L-lysine. A 0.2% gelatin solution was prepared in PBS, and a 1:20 mixture of Alexa 405-labeled gelatin/unlabeled gelatin was warmed to 37° C. before addition to the poly-L-lysine coated plates. Gelatin was cross-linked with 0.01% glutaraldehyde followed by quenching with 5 mg/ml sodium borohydride. 125,000 MDA-MB-231 cells were plated on Alexa 405-labeled gelatin plates in the presence of 0.1, 1, or 5 μM of Pyk2-PRR peptides or scrambled control for 4 h. At the end of incubation, cells were fixed in 3.7% paraformaldehyde, permeabilized with 0.1% Triton X-100, blocked with 1% FBS, 1% BSA in PBS, and labeled with anti-Tks5 and anti-cortactin. Images were acquired using an inverted fluorescent microscope (Leica AF6000; 63×, NA 1.4, oil objective, Leica LAS AF acquisition software) (Wetzlar, Germany) equipped with an ORCA-Flash 4.0 V2 digital CMOS camera (Hamamatsu Photonics, Shizuoka, Japan).

For the next assay, the system named is 4T1 cells. The assay is described as follows: Spontaneous lung metastasis clonogenic assay in 4T1 xenograft mouse model. The assay is classed as in vivo, BALB/c female mice. To be noted: 10 mg/kg once a day for eight days, intraperitoneal injection, HIV-TAT fused peptide; versus scrambled control. As to the method:
All experimental procedures were conducted following the Federation of Laboratory Animal Science Association (FELSA) and were approved by the Bar-Ilan University animal use and care committee. Mouse xenograft tumors were generated by injecting 10^6 4T1 cells resuspended in 20% collagen I (BD Biosciences, Franklin Lakes, NJ, USA) in PBS into the lower-left mammary gland of 8-week-old BALB/c female mice. […] 4T1 cells have intrinsic resistance to 6-thioguanine, which enables precise quantification of metastatic cells, even when they are disseminated at sub-microscopic levels at distant organs, upon excision and digestion of selected organs. The clonogenic assay is based on a principle by which one colony represents one metastatic cell. Briefly, spontaneous lung metastasis was measured in BALB/c mice bearing orthotopic 4T1 tumors of equal size (1-1.2 cm in diameter). Lungs were excised and minced and plated in RPMI/10% FBS in the presence of 6-thioguanine to select for tumor cells only. Cells were plated in a 5% CO2 incubator at 37° C. for 14 days to form 4T1 colonies. On day 14 after plating, the medium was removed from dishes, and colonies were fixed in 4% paraformaldehyde for one hour at room temperature. Colonies were then stained in 2% crystal violet solution and thoroughly washed with PBS. Plates were allowed to air dry, and colonies in each plate were quantified. […]

Assay [3] has as its system interaction between Pyk2 and cortactin in invadopodia. The assay is described as follows: Acceptor photobleaching FRET assay. It is filed as cell-based, human. To be noted: 0.1, 1, 5 μM peptide; mature matrix-degrading invadopodia. The procedure: Acceptor photobleaching experiments were performed as described in Genna et al., 2018 (supra). In brief, cortactin-TagRFP MDA-MB-231 cells were plated on Alexa 405 gelatin in a medium containing Pyk2-PRR or scrambled control peptides at 0.1, 1, and 5 μM concentration, fixed, and immunostained with pY402-Pyk2/Alexa Fluor 488-goat anti-rabbit (donor) and cortactin/Alexa Fluor 555-goat anti-mouse (acceptor). As a control, cells were stained with Tks5/Alexa Fluor 488-goat anti-rabbit (donor) and cortactin/Alexa Fluor 555-goat anti-mouse (acceptor). Co-localization of cortactin with degradation holes in Alexa 405-labeled gelatin was used to identify mature degrading invadopodia. For all FRET experiments, cells were imaged in PBS at room temperature on a laser-scanning inverted confocal microscope (Zeiss LSM780; 60×, NA 1.4, oil objective). A region of interest surrounding invadopodia was bleached using 100% 561-nm laser power (acceptor channel), and images were acquired in both the 488 nm and the 561 nm channels before and after bleaching. FRET efficiency was calculated as the E=1−(donor pre/donor post) in background-subtracted images and was corrected for fluctuations in laser power and donor bleaching in ImageJ.

For assay [4], the target named is T1, cortactin-SH3 domain (mouse cortactin SH3 domain, GenBank ID U03184; nucleotides 1468-1641) (mouse, UniProt Q60598 490-546, isotopically labeled (15N, 13C and/or 2H) for NMR).
T1 construct: domain: SH3 domain; also called purified cortactin-SH3
The assay is described as follows: NMR chemical shift titration.

Assay [5] deals with T1, cortactin-SH3 domain (mouse cortactin …). Put plainly: NMR chemical shift titration (1H,15N-HSQC), unlabeled peptide into 15N-SH3.

T1 sequence (Q60598 490-546 limits assumed, one chain of several): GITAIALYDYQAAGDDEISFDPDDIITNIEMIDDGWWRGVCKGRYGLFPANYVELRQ

“TAFQEPAPKASQAQYRPPP [Pyk2 super-mutant, TAFQEPAPKASQAQYRPPP]”: the “matrix degradation (degradation area)” value with MDA-MB-231 cells [1] was “small but significant reduction”. The “mature, matrix-degrading invadopodia” value with MDA-MB-231 cells [2] (co-localization with degradation regions) is “small but significant reduction”. Further, the immature invadopodium precursors entry in the assay on MDA-MB-231 cells [2] (cortactin and Tks5 co-localization) was “no significant effect”. For the same molecule, the “lung metastases (6-thioguanine-resistant colonies)” value in the assay with 4T1 cells is “no significant differences in colony number”. Besides, the “interaction between Pyk2 and cortactin in invadopodia (FRET)” value in assay [3] was “does not significantly inhibit”.

B1: Pyk2-PRR2 peptide (SEQ ID NO: 1) (peptide)
peptide: TAFQEPPPKPSRPKYRPPP
notes: Unlabeled synthetic peptide as used in the NMR experiments; Positions count on UniProt Q14289
Regarding B1, the “fold higher affinity than Pyk2-PRR3” value in assay [4] was 16 fold. For the same molecule, the Kd in assay [5] is 40 µM.

Broadly, the Kd is the constant that tells how readily two partners part at equilibrium.
